Legend:
[1] = tested on: HSC-3 cells; test: Flow cytometric detection of apoptosis (Annexin V/PI); format: cell-based, human; details: HSC-3, 24 h; cisplatin 50 µM, MPMs 5-20 µM
Procedure: HSC-3 and UT-SCC-24A cells were seeded, 300,000 cells/well, in 6-well plates and left to adhere overnight. The media was then removed and replaced by 2 ml complete DMEM/F-12 containing 5, 7.5, 10 or 20 µM of MPM-2:0, MPM-6:0, MPM-3:2 or MPM-4:2, or 50 µM cisplatin. Some cells were left untreated. The cells were then incubated for 24 h. Next, the cell supernatants were collected before the cells were trypsinized and spun down with the supernatants. For the staining, an apoptosis detection kit was used (#88-8005-74, Thermo Fisher Scientific). The cells were washed once in PBS and once in 1x binding buffer before being incubated with FITC labeled Annexin V diluted 1:25 in 1 × binding buffer for 15 min. Next the cells were washed in 1 × binding buffer before being incubated with PI diluted 1:100 in 1 × binding buffer for at least 5 min before analysis was performed on the LSR Fortessa (BD Biosciences, CA, United States). Analyses were performed in FlowJo™ v.10 (https://www.flowjo.com/).

[2] = tested on: UT-SCC-24A cells; test: MTS viability assay with bafilomycin A1 and z-VAD-FMK; format: cell-based, human; details: 24 h, cisplatin 50 µM, MPM-2:0/MPM-6:0 10 µM, MPM-3:2/MPM-4:2 20 µM
Procedure: HSC-3 and UT-SCC-24A cells were seeded, 10,000 cells/well, in flat bottom 96-well plates and left to adhere overnight. The supernatants were then removed and replaced by 50 µl of complete DMEM/F-12 ± 100 nM BafA1 (#196000, Sigma-Aldrich, St. Louis, MO, United States) or 50 µM z-VAD-FMK (#219007, Sigma-Aldrich). The plate was then incubated for 1 hour before another 50 µl of complete DMEM/F-12 ± 100 nM BafA1 or 50 µM z-VAD-FMK as well as the MPMs or cisplatin was added. The final concentration of cisplatin was 50 µM and for the MPMs it was 5 or 10 µM for MPM-2:0 and MPM-6:0, and 10 or 20 µM for MPM-3:2 and MPM-4:2, for HSC-3 and UT-SCC-24A cells, respectively. 100 μl of media ± 1% Triton X-100 served as […]. The cells were incubated for 24 h before 20 µl of MTS reagent (CellTiter 96® Aqueous One Solution, Promega, Madison, WI, United States) was added to each well. The plate was then incubated for one more hour before absorbance was measured at 490 nm on a VersaMaxTM Microplate reader (Molecular Devices, San Jose, CA, United States). Viability was calculated using the following formula: %=Abs treated sample−Abs positive control/Abs negative control−Abs positive control x 100
At least three independent experiments were performed, with triplicate wells in each experiment.

N.N.[Cl][Pt][Cl] [Cisplatin, cisplatin, reference compound]
apoptotic (Annexin V+/PI−) population (in words) [1]: small, but clearly apoptotic (Annexin V+/PI−) population | viability in the presence of BafA1 (100 nM) or z-VAD-FMK (50 µM) (in words) [2]: z-VAD-FMK seemed to have some protective effects against cisplatin for both cell lines, while BafA1 had the opposite effect
